# Measurements from US11642671B2, “Electrowetting on dielectric (EWOD) device to perform liquid-to-liquid extraction (LLE) of biomolecules and systems and methods for using the EWOD device” (Board of Regents, The University of Texas System, priority 2019, dated 2023).
# Assay: Multistage LLE (MLLE) of binary dye mixture on EWOD device with IL extractant
# Type: physicochemical
# Details: binary 1:1 green/yellow dye sample
# Experimental: The sample phase was prepared by mixing equal amounts of these two dyes. The final concentration of each analyte in the sample mixture formed was 1250 μg/ml for all the EWOD LLE experiments. […]
# For the LLE process on an EWOD DMF electrode array, the droplets were generated, mixed, and split during the process. […] The on-chip concentration method quantified the yield of the LLE process. […]
# In order to explore this characteristic of EWOD, MLLE was performed in this study with two cycles of LLE. […] After each cycle of the process, the sample droplet was transported to the concentration measurement electrode, and the voltage measurement was done for absorbance.
# Next, the results of binary separation by MLLE performed on the EWOD device 20 was compared with theoretical values. The theoretical values were calculated from the partition coefficient values of each solute obtained in the manner described above. […]
structure (smiles),measurement,setting,value
"Cc1ccc(Nc2ccc(Nc3ccc(C)cc3S(=O)(=O)[O-])c3c2C(=O)c2ccccc2C3=O)c(S(=O)(=O)[O-])c1.[Na+].[Na+] [green dye, acid green 25]",green dye extracted after first cycle of LLE on EWOD,"IL extractant, extraction time 5 minutes",~50%
same,initial green dye extracted at the end of the second cycle,"fresh IL droplet, two MLLE cycles",~60%
